The values that follow are results of earlier work, collected in publication PMC8513935.

Each structure is given as a SMILES string.

Data set [1] in a line: experimental, compiled by the authors from the literature (the ESI cites the sources).
Data set [2] in a line: derived by the authors as gas->solvent minus gas->water (a hypothetical dry solvent; the ESI), not a two-phase measurement.
Data set [3] can be described thus: log P octanol/water from commercial databases, averaged (the ESI). The settings on record: Octanol (wet), 25 C.

Regarding `CCCl`, the log K of transfer, gas to solvent in data set [1] (2-Methylpropan-1-ol, 25 C) is 1.78 log10 K; in data set [1] (2-Methylpropan-2-ol, 25 C) it was 1.79 log10 K; in data set [1] (3-Methylbutan-1-ol, 25 C), 1.78 log10 K; in data set [1] (Butan-1-ol, 25 C), 1.83 log10 K; in data set [1] (Butan-2-ol, 25 C), 1.77 log10 K; in data set [1] (Chlorobenzene, 25 C), 2.17 log10 K. Further, the log K of transfer, gas to solvent was 1.68 log10 K in data set [1] (Hexadecane, 25 C); 1.91 log10 K in data set [1] (Hexane, 25 C); 1.93 log10 K in data set [1] (Methanol, 25 C); 1.81 log10 K in data set [1] (Pentan-1-ol, 25 C); 1.86 log10 K in data set [1] (Propan-1-ol, 25 C); 1.81 log10 K in data set [1] (Propan-2-ol, 25 C). The log K of transfer, gas to solvent in data set [1] (Water, 25 C) was 0.46 log10 K. Also, the log K of transfer, water to solvent in data set [2] (2-Methylpropan-1-ol, 25 C) is 1.32 log10 K; in data set [2] (2-Methylpropan-2-ol, 25 C), 1.33 log10 K; in data set [2] (3-Methylbutan-1-ol, 25 C), 1.32 log10 K; in data set [2] (Butan-1-ol, 25 C), 1.37 log10 K; in data set [2] (Butan-2-ol, 25 C), 1.31 log10 K; in data set [2] (Chlorobenzene, 25 C), 1.71 log10 K. In addition, the log K of transfer, water to solvent was 1.22 log10 K in data set [2] (Hexadecane, 25 C); 1.45 log10 K in data set [2] (Hexane, 25 C); 1.47 log10 K in data set [2] (Methanol, 25 C); 1.35 log10 K in data set [2] (Pentan-1-ol, 25 C); 1.4 log10 K in data set [2] (Propan-1-ol, 25 C); 1.35 log10 K in data set [2] (Propan-2-ol, 25 C). For the same molecule, in data set [3], the log K of transfer, water to solvent was 1.43 log10 K.

Take `CC(C)(C)Cl`: the log K of transfer, gas to solvent is 2.62 log10 K in data set [1] (1,2-Dichloroethane, 25 C); 2.16 log10 K in data set [1] (2-Methylpropan-2-ol, 25 C); 2.17 log10 K in data set [1] (Butan-1-ol, 25 C); 2.68 log10 K in data set [1] (CCl4, 25 C); 2.61 log10 K in data set [1] (Chlorobenzene, 25 C); 2.66 log10 K in data set [1] (Cyclohexanone, 25 C). The log K of transfer, gas to solvent was 2.48 log10 K in data set [1] (Diethyl Ether, 25 C); 2.27 log10 K in data set [1] (Hexadecane, 25 C); 2.51 log10 K in data set [1] (Hexane, 25 C); 2.05 log10 K in data set [1] (Propan-2-ol, 25 C); 2.5 log10 K in data set [1] (Tetrahydrofuran, 25 C); -0.8 log10 K in data set [1] (Water, 25 C). For the same molecule, the log K of transfer, water to solvent in data set [2] (1,2-Dichloroethane, 25 C) was 3.42 log10 K; in data set [2] (2-Methylpropan-2-ol, 25 C), 2.96 log10 K; in data set [2] (Butan-1-ol, 25 C), 2.97 log10 K; in data set [2] (CCl4, 25 C), 3.48 log10 K; in data set [2] (Chlorobenzene, 25 C) it was 3.41 log10 K; in data set [2] (Cyclohexanone, 25 C) it was 3.46 log10 K. Moreover, the log K of transfer, water to solvent is 3.28 log10 K in data set [2] (Diethyl Ether, 25 C); 3.07 log10 K in data set [2] (Hexadecane, 25 C); 3.31 log10 K in data set [2] (Hexane, 25 C); 2.85 log10 K in data set [2] (Propan-2-ol, 25 C); 3.3 log10 K in data set [2] (Tetrahydrofuran, 25 C); 2.58 log10 K in data set [3].

As to `CCCOCCC`, the log K of transfer, gas to solvent in data set [1] (2-Methylpropan-1-ol, 25 C) was 3.06 log10 K; in data set [1] (2-Methylpropan-2-ol, 25 C), 3.03 log10 K; in data set [1] (Butan-1-ol, 25 C) it was 3.03 log10 K; in data set [1] (Butan-2-ol, 25 C) it was 3.04 log10 K; in data set [1] (Butanone, 25 C), 3.2 log10 K; in data set [1] (CCl4, 25 C) it was 3.54 log10 K. In addition, the log K of transfer, gas to solvent in data set [1] (Dichloromethane, 25 C) was 3.68 log10 K; in data set [1] (Hexadecane, 25 C), 2.95 log10 K; in data set [1] (Hexan-1-ol, 25 C), 3.02 log10 K; in data set [1] (Methanol, 25 C), 2.89 log10 K; in data set [1] (Octan-1-ol, 25 C), 2.97 log10 K; in data set [1] (Perfluoroalkane, 25 C), 2.08 log10 K. The log K of transfer, gas to solvent in data set [1] (Propan-2-ol, 25 C) is 2.95 log10 K; in data set [1] (Water, 25 C) it was 0.9 log10 K. Also, the log K of transfer, water to solvent in data set [2] (2-Methylpropan-1-ol, 25 C) is 2.16 log10 K; in data set [2] (2-Methylpropan-2-ol, 25 C), 2.13 log10 K; in data set [2] (Butan-1-ol, 25 C) it was 2.13 log10 K; in data set [2] (Butan-2-ol, 25 C), 2.14 log10 K; in data set [2] (Butanone, 25 C) it was 2.3 log10 K; in data set [2] (CCl4, 25 C), 2.64 log10 K. The log K of transfer, water to solvent was 2.78 log10 K in data set [2] (Dichloromethane, 25 C); 2.05 log10 K in data set [2] (Hexadecane, 25 C); 2.12 log10 K in data set [2] (Hexan-1-ol, 25 C); 1.99 log10 K in data set [2] (Methanol, 25 C); 2.07 log10 K in data set [2] (Octan-1-ol(dry), 25 C); 1.18 log10 K in data set [2] (Perfluoroalkane, 25 C). For the same molecule, the log K of transfer, water to solvent in data set [2] (Propan-2-ol, 25 C) was 2.05 log10 K; in data set [3], 2.03 log10 K.

As to `CN1CCCCC1`, the log K of transfer, gas to solvent was 4.21 log10 K in data set [1] (Chloroform, 25 C); 3.33 log10 K in data set [1] (Hexadecane, 25 C); 2.85 log10 K in data set [1] (Water, 25 C). Moreover, the log K of transfer, water to solvent in data set [2] (Chloroform, 25 C) was 1.36 log10 K; in data set [2] (Hexadecane, 25 C), 0.48 log10 K; in data set [3], 1.29 log10 K.
